# Assay results from patent US20240151732A1, “EX VIVO METHOD FOR ANALYSING A TISSUE SAMPLE USING PROTEOMIC PROFILE MATCHING, AND ITS USE FOR THE DIAGNOSIS, PROGNOSIS OF PATHOLOGIES AND FOR PREDICTING RESPONSE TO TREATMENTS” (Université de Bordeaux, priority 2021, published 2024).
# Experiments:
# [1] = system: advanced HCC; conditions: SHARP test; proportion of good responders to sorafenib; cited from earlier work
# [2] = system: advanced HCC; conditions: phase III study, first line; Kudo et al. [10]; cited from earlier work
# [3] = system: HUH7 cells; test: growth of HUH7 cells; assay type: cell-based; conditions: in our hands
# [4] = system: HCC cells; conditions: in vitro and in vivo; Xu et al. [23]; cited from earlier work
smiles,measurement,setting,value
CNC(=O)c1cc(Oc2ccc(NC(=O)Nc3ccc(Cl)c(C(F)(F)F)c3)cc2)ccn1 [sorafenib],objective response,[1],2%
COc1cc2nccc(Oc3ccc(NC(=O)NC4CC4)c(Cl)c3)c2cc1C(N)=O [lenvatinib],overall survival compared to sorafenib,[2],non-inferiority
Cc1ncc(C[n+]2csc(CCO)c2C)c(=O)[nH]1 [oxythiamine],effect on the growth of HUH7 cells,[3],did not confirm the effect
same,efficacy in HCC cells,[4],effective
